The numbers were not newly measured in paper PMC9947563, “Identification of the molecular determinants of antagonist potency in the allosteric binding pocket of human P2X4” (Frontiers in Pharmacology, 2023), which cites them from elsewhere.

What is called IC50 is the concentration at which inhibition is half-maximal.

Read-outs that look alike come from different tables or passages of the source.

The test system of one data set is hP2X4. Particulars: cited from earlier work.
Another data set relates to rP2X4. Particulars: ref Hernandez-Olmost et al. (2012); cited from earlier work.
Another data set relates to mP2X4. Particulars: ref Hernandez-Olmost et al. (2012); read-out: mP2X4 IC50; cited from earlier work.
In the next data set the test system is P2X4. On the set-up: method as in Hernandez-Olmos et al., 2012. As to conditions: ref Hernandez-Olmos et al., 2012; cited from earlier work.
The conditions of data set [1]: ref Hernandez-Olmos et al., 2012; cited from earlier work.
The test system of the next data set is P2X1. On the set-up: method as in Tian M. et al., 2020. As to conditions: ref Tian M. et al., 2020; cited from earlier work.
In a further data set the test system is P2X7. On the set-up: method as in Tian M. et al., 2020. As to conditions: ref Tian M. et al., 2020; cited from earlier work.

In the case of `O=C(OCc1ccccc1)N1c2ccccc2Oc2ccccc21` [PSB-12054], the IC50 in the data set with hP2X4 (ref Hernandez-Olmost et al. (2012), read-out: hP2X4 IC50) was 190 nM; in the data set on rP2X4 it was 2100 nM; with mP2X4 it was 1800 nM. The “potency as P2X4 antagonist (in words)” value in the data set on P2X4 is listed as “low micromolar range”. Also, the “solubility (in words)” value in data set [1] is recorded as “partial solubility”.
Consider `O=C(Nc1cc(C(F)(F)F)cc(C(F)(F)F)c1)c1cccc(Cl)c1O` [Tian-13], for which the IC50 in the data set on hP2X4 (ref Tian M. et al., 2020, read-out: P2X4 IC50) is 48.8 ± 11 nM; in the data set with hP2X4 (ref Tian et al. (2020), read-out: hP2X4 IC50) it was 49 nM; in the data set with P2X1, 58 ± 21.9 nM; in the data set on P2X7 it was 177 ± 11 nM.
